Laboratory results reported in US20250230147A1, “LACTAMS AS CBL-B INHIBITORS” (Genentech, Inc., priority 2021, published 2025).
pIC50: −log10 of the molar value. Counter-ions that a name gives are not always drawn.

What was measured:
[1] = biological target: c-Cbl (Homo sapiens (Human), UniProt P22681); test: C-Cbl LCK Ub TR-FRET assay (c-cbl Lck HTRF); format: biochemical; conditions: for (fold-selectivity): C-cbl Lck HTRF IC50 relative to Cbl-b Lck HTRF IC50
How it was run: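 Signal is read once the detection mix has stood 20 min at ambient temperature. Curves are anchored by DMSO as maximum and by omission of LCK as minimum.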

[2] = biological target: Cbl-b (Homo sapiens (Human), UniProt Q13191); test: Cbl-b LCK Ub TR-FRET assay (Cbl-b Lck HTRF); format: biochemical
Sequence of Cbl-b (Q13191 40-426): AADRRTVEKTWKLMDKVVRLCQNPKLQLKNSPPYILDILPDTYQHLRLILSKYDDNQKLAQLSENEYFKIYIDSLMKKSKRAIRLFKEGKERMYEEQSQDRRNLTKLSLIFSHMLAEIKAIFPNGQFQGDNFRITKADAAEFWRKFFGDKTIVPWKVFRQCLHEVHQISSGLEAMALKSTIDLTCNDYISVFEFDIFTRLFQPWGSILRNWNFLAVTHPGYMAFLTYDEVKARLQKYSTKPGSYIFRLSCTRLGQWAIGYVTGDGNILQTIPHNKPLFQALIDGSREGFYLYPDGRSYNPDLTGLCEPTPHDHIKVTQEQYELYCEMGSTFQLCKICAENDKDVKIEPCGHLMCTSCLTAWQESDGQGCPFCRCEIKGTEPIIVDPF
How it was run: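 TR-FRET (340 nm excitation, 615/665 nm emission) read after adding HA-ubiquitin–UBE2D2 thioester, anti-HA-D2 and streptavidin-Eu. Beforehand, compounds incubated 60 min with biotinylated Cbl-b, then 90 min with His-LCK and ATP (1 mM in 2× mix); IC50 from 10 concentrations, DMSO high and no-LCK low controls.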

Sequence of c-Cbl (P22681 47-435): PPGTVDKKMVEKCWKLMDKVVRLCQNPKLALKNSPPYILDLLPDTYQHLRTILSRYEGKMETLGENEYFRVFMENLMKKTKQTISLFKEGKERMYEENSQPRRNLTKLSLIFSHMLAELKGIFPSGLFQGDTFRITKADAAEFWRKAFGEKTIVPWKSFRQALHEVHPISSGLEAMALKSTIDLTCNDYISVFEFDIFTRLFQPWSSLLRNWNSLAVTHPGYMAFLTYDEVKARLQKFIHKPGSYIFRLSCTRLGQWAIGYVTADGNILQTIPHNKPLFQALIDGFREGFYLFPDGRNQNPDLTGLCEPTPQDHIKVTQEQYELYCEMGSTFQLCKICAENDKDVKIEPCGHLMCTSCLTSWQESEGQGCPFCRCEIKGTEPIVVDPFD

| pIC50 [1] | (fold-selectivity) [1] | pIC50 [2] | Compound |
| --- | --- | --- | --- |
| 7.96 | (0.84x) | 7.89 | Cn1cnnc1[C@H](F)C1(c2cccc(N3Cc4c(cc(CNC5(C)CCC5)cc4C(F)(F)F)C3=O)c2)COC1 [Compound 230, (R)-2-(3-(3-(fluoro(4-methyl-4H-1,2,4-triazol-3-yl)methyl)oxetan-3-yl)phenyl)-6-(((1-methylcyclobutyl)amino)methyl)-4-(trifluoromethyl)isoindolin-1-one] |
| 7.09 | (0.82x) | 8.01 | Cn1cnnc1[C@H](F)C1(c2cccc(N3Cc4c(cc(CNCCCF)cc4C(F)(F)F)C3=O)c2)COC1 [Compound 231, (R)-2-(3-(3-(fluoro(4-methyl-4H-1,2,4-triazol-3-yl)methyl)oxetan-3-yl)phenyl)-6-(((3-fluoropropyl)amino)methyl)-4-(trifluoromethyl)isoindolin-1-one] |
| 8.10 | (0.80x) | 7.96 | Cn1cnnc1CC1(c2cccc(N3Cc4c(cc(CNC5(C)CCC5)cc4C(F)(F)F)C3=O)c2)CC(F)(F)C1 [Compound 232, 2-(3-(3,3-difluoro-1-((4-methyl-4H-1,2,4-triazol-3-yl)methyl)-cyclobutyl)phenyl)-6-(((1-methylcyclobutyl)amino)methyl)-4-(trifluoromethyl)isoindolin-1-one] |
| 8.15 | (0.94x) | 8.08 | CC(C)[C@H]1CN(C)CCN1Cc1cc2c(c(C(F)(F)F)c1)CN(c1cc(C3([C@@H](F)c4nncn4C)CCC3)cc(NCCO)n1)C2=O [Compound 233, 2-(4-(1-((R)-fluoro(4-methyl-4H-1,2,4-triazol-3-yl)methyl)cyclobutyl)-6-((2-hydroxyethyl)amino)pyridin-2-yl)-6-(((S)-2-isopropyl-4-methyl-piperazin-1-yl)methyl)-4-(trifluoromethyl)isoindolin-1-one] |
| 8.07 | (1.2x) | 8.14 | CC(C)[C@H]1CN(C)CCN1Cc1cc2c(c(C(F)(F)F)c1)CN(c1cc(C3([C@H](F)c4nncn4C)CCC3)cc(NCCO)n1)C2=O [Compound 234, 2-(4-(1-((S)-fluoro(4-methyl-4H-1,2,4-triazol-3-yl)methyl)cyclobutyl)-6-((2-hydroxyethyl)amino)pyridin-2-yl)-6-(((S)-2-isopropyl-4-methylpiperazin-1-yl)methyl)-4-(trifluoromethyl)isoindolin-1-one] |
| 7.68 | (1.4x) | 7.82 | Cn1cnnc1C(F)(F)C1(c2cccc(N3Cc4c(cc(CNC5(C)CCC5)cc4C(F)(F)F)C3=O)c2)CCC1 [Compound 235, 2-(3-(1-(difluoro(4-methyl-4H-1,2,4-triazol-3-yl)methyl)cyclobutyl)phenyl)-6-(((1-methylcyclobutyl)amino)methyl)-4-(trifluoro-methyl)isoindolin-1-one] |
| 6.74 | (1.8x) | 7.00 | Cc1cn[nH]c1C(F)C1(c2cccc(N3Cc4c(cc(CN5CCN(C)C[C@@H]5C(C)C)cc4C(F)(F)F)C3=O)c2)COC1 (stereo partly drawn) [Compound 237, 2-(3-(3-(fluoro(4-methyl-1H-pyrazol-5-yl)methyl)oxetan-3-yl)-phenyl)-6-(((S)-2-isopropyl-4-methylpiperazin-1-yl)methyl)-4-(trifluoromethyl)isoindolin-1-one] |
| 7.96 | (1.0x) | 7.96 | Cn1cnnc1CC1(c2cc(NCC3CC3)nc(N3Cc4c(cc(CNC5(C)CCC5)cc4C(F)(F)F)C3=O)c2)CCC1 [Compound 238, 2-(6-((cyclopropylmethyl)amino)-4-(1-((4-methyl-4H-1,2,4-triazol-3-yl)methyl)cyclobutyl)pyridin-2-yl)-6-(((1-methylcyclobutyl)amino)methyl)-4-(trifluoromethyl)-isoindolin-1-one] |
| 7.32 | (1.4x) | 7.46 | C=CC(=O)Nc1cc(C2(Cc3nncn3C)CCC2)cc(N2Cc3c(cc(CN4CCN(C)C[C@@H]4C(C)C)cc3C(F)(F)F)C2=O)n1 [Compound 239, (S)—N-(6-(6-((2-isopropyl-4-methylpiperazin-1-yl)methyl)-1-oxo-4-(trifluoromethyl)isoindolin-2-yl)-4-(1-((4-methyl-4H-1,2,4-triazol-3-yl)methyl)cyclobutyl)-pyridin-2-yl)acrylamide] |
| 7.41 | (0.71x) | 7.27 | CC(C)[C@H]1CN(C)CCN1Cc1cc2c(c(C(F)(F)F)c1)CN(c1cccc(C3(Cc4nncn4C)CC(F)(F)C3)c1)C2=O [Compound 240, (S)-2-(3-(3,3-difluoro-1-((4-methyl-4H-1,2,4-triazol-3-yl)methyl)-cyclobutyl)phenyl)-6-((2-isopropyl-4-methylpiperazin-1-yl)methyl)-4-(trifluoromethyl)iso-indolin-1-one] |
| 7.80 | (0.77x) | 7.68 | Cn1cnnc1CC1(c2cc(Cc3ccccc3)nc(N3Cc4c(cc(CNC5(C)CCC5)cc4C(F)(F)F)C3=O)c2)CCC1 [Compound 241, 2-(6-benzyl-4-(1-((4-methyl-4H-1,2,4-triazol-3-yl)methyl)cyclo-butyl)pyridin-2-yl)-6-(((1-methylcyclobutyl)amino)methyl)-4-(trifluoromethyl)isoindolin-1-one] |
| 7.39 | (1.3x) | 7.51 | Cn1cnnc1CC1(c2cccc(N3Cc4c(cc(CNC5(C)CCC5)cc4C(F)(F)F)C3=O)c2)CS(=O)(=O)C1 [Compound 242, 2-(3-(3-((4-methyl-4H-1,2,4-triazol-3-yl)methyl)-1,1-dioxido-thietan-3-yl)phenyl)-6-(((1-methylcyclobutyl)amino)methyl)-4-(trifluoromethyl)isoindolin-1-one] |
| 7.33 | (1.6x) | 7.54 | Cc1cnnn1CC1(c2cccc(N3Cc4c(cc(CNC5(C)CCC5)cc4C(F)(F)F)C3=O)c2)COC1 [Compound 243, 2-(3-(3-((5-methyl-1H-1,2,3-triazol-1-yl)methyl)oxetan-3-yl)-phenyl)-6-(((1-methylcyclobutyl)amino)methyl)-4-(trifluoromethyl)isoindolin-1-one] |
| 7.85 | (0.97x) | 7.82 | Cn1cnnc1CC1(c2cccc(N3Cc4c(cc(CNC5(C)CCC5)c(F)c4C(F)(F)F)C3=O)c2)CC(F)(F)C1 [Compound 244, 2-(3-(3,3-difluoro-1-((4-methyl-4H-1,2,4-triazol-3-yl)methyl)cyclo-butyl)phenyl)-5-fluoro-6-(((1-methylcyclobutyl)amino)methyl)-4-(trifluoromethyl)isoindolin-1-one] |
| 7.89 | (1.0x) | 7.89 | C[C@@H](NC1(C)CCC1)c1cc2c(c(C(F)(F)F)c1)CN(c1cccc(C3(Cc4nncn4C)CC(F)(F)C3)c1)C2=O [Compound 245, (R)-2-(3-(3,3-difluoro-1-((4-methyl-4H-1,2,4-triazol-3-yl)-methyl)cyclobutyl)phenyl)-6-(1-((1-methylcyclobutyl)amino)ethyl)-4-(trifluoromethyl)-isoindolin-1-one] |
| 8.36 | (0.76x) | 8.24 | C[C@H](NC1(C)CCC1)c1cc2c(c(C(F)(F)F)c1)CN(c1cccc(C3(Cc4nncn4C)CC(F)(F)C3)c1)C2=O [Compound 246, (S)-2-(3-(3,3-difluoro-1-((4-methyl-4H-1,2,4-triazol-3-yl)methyl)-cyclobutyl)phenyl)-6-(1-((1-methylcyclobutyl)amino)ethyl)-4-(trifluoromethyl)isoindolin-1-one] |
| 7.96 | (1.4x) | 8.12 | C[C@@H](NC1(C)CCC1)c1cc2c(c(C(F)(F)F)c1)CN(c1cccc(C3([C@@H](F)c4nncn4C)COC3)c1)C2=O [Compound 247, 2-(3-(3-((R)-fluoro(4-methyl-4H-1,2,4-triazol-3-yl)methyl)oxetan-3-yl)phenyl)-6-((R)-1-((1-methylcyclobutyl)amino)ethyl)-4-(trifluoromethyl)isoindolin-1-one] |
| 8.28 | (0.79x) | 8.17 | C[C@H](NC1(C)CCC1)c1cc2c(c(C(F)(F)F)c1)CN(c1cccc(C3([C@@H](F)c4nncn4C)COC3)c1)C2=O [Compound 248, 2-(3-(3-((R)-fluoro(4-methyl-4H-1,2,4-triazol-3-yl)methyl)oxetan-3-yl)phenyl)-6-((S)-1-((1-methylcyclobutyl)amino)ethyl)-4-(trifluoromethyl)isoindolin-1-one] |

| Compound | pIC50 [1] | (fold-selectivity) [1] | pIC50 [2] |
| --- | --- | --- | --- |
| CCNc1cc(C2(Cc3nncn3C)CC(F)(F)C2)cc(N2Cc3c(cc(CN4CCN(C)C[C@@H]4C(C)C)cc3C(F)(F)F)C2=O)n1 [Compound 236, (S)-2-(4-(3,3-difluoro-1-((4-methyl-4H-1,2,4-triazol-3-yl)methyl)-cyclobutyl)-6-(ethylamino)pyridin-2-yl)-6-((2-isopropyl-4-methylpiperazin-1-yl)methyl)-4-(trifluoromethyl)isoindolin-1-one formate] | 8.10 |  | 8.15 |
| Cn1cnnc1[C@H](F)C1(c2cccc(N3Cc4c(cc(CNC5(C)CCC5)cc4C(F)F)C3=O)c2)COC1 [Compound 249, (R)-4-(difluoromethyl)-2-(3-(3-(fluoro(4-methyl-4H-1,2,4-triazol-3-yl)methyl)oxetan-3-yl)phenyl)-6-(((1-methylcyclobutyl)amino)methyl)isoindolin-1-one formate] | 7.70 |  | 7.92 |
